Data as given in paper PMC10221418, “The Specific Binding and Promotion Effect of Azoles on Human Aldo-Keto Reductase 7A2” (Metabolites, 2023).

How the values were obtained:
human AKR7A2 [1] = biological target: T1, human AKR7A2 (Homo sapiens, UniProt O43488); test: Biacore assays: binding of azole drugs and 2-CBA to immobilized AKR7A2; settings: 25 °C; for kd: 1:1 binding model; for Kd: KD calculated by kd/ka
T1 construct: made in house; host or cells: E. coli BL21 (DE3) pLysS, pET-28a vector
Method: All experiments were performed on a Biacore 8k instrument (GE, Healthcare). According to the manufacturer’s handbook, about 1 mg/mL of freshly purified AKR7A2 protein was diluted with 10 mM sodium acetate buffer (pH 5.0) and was immobilized on a sensor chip CM5, via amine coupling, to a level of ~20,000 resonance units (RU). A reference surface was prepared in parallel with the addition of the buffer and was used for the subtraction of nonspecific binding. The analytes 2-CBA and azole drugs were diluted in a running buffer containing 2% DMSO. […] All samples were injected at a flow rate of 30 μL/min. The experimental sensorgrams were analyzed by Biacore 8k Evaluation Software Version 1.1.1.7442. The resulting curves were fitted with a 1:1 binding model, which gave the kinetic constants (ka, kd, and KD). All measurements were repeated in at least three independent experiments.

human AKR7A2 [2] = biological target: T1, human AKR7A2; test: Steady-state kinetics of AKR7A2 catalyzing 2-CBA in the absence or presence of azole drugs; format: biochemical; settings: for effect on catalytic efficiency (kcat/Km) of AKR7A2 catalyzing 2-CBA: compared to absence of drug; for kcat / increment of kcat/Km compared with the absence of the drug: substrate 2-CBA; for increment of kcat/Km compared with the absence of the drug: highest concentration of drug (50 μM; fluconazole 100 μM)
Method: (§1) The steady-state kinetic parameters of AKR7A2 catalyzing 2-CBA were measured on a UV-2550 spectrophotometer (SHIMADZU, Japan) in the absence or presence of azole drugs. All drugs were dissolved with DMSO. Fluconazole, voriconazole, and ketoconazole were all made up of 2, 5, and 10 mM of mother solution. […] The steady-state kinetic assays were performed, as before, with some modifications. […] The reactions were initiated by the addition of 2-CBA and were monitored for 4 min at 25 °C. […] The kinetic data were fitted to the Michaelis-Menten equation [56, 57] using GraphPad Prism 8.0 (GraphPad Software, San Diego, CA, USA). The kinetic parameters Km and kcat were generated by the fitting. The resulting data were expressed as the mean ± standard deviation (SD) based on at least three independent experiments. Statistical significance was analyzed by ANOVA, and the significance was defined as * p < 0.05, ** p < 0.01, *** p < 0.001, or **** p < 0.0001.

human AKR7A2 [3] = biological target: T1, human AKR7A2; test: Steady-state kinetics of AKR7A2 with SSA as a substrate in the absence or presence of voriconazole; format: biochemical; settings: for kcat: substrate SSA
Method: as §1, with “The steady-state kinetic parameters of AKR7A2 catalyzing 2-CBA were measured on a UV-2550 spectrophotometer (SHIMADZU, Japan) in the absence or presence of azole drugs.” left out, “The reactions were initiated by the addition of 2-CBA and were monitored for 4 min at 25 °C.” left out

[4] = design: method as in PMID 12942409; settings: patients, after administration; cited from earlier work

T1 sequence (O43488 39-359): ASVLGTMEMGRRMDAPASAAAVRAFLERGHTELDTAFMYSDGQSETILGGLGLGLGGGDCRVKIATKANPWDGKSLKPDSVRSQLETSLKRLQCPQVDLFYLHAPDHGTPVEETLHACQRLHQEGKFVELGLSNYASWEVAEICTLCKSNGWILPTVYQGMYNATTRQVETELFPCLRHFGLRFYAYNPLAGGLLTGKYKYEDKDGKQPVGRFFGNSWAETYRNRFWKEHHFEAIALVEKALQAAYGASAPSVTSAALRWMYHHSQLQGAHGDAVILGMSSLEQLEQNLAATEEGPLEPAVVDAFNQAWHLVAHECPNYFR

SMILES: O=Cc1ccccc1C(=O)O [2-CBA, 2-carboxybenzaldehyde]
- kd (human AKR7A2 [1]): 0.0229 ± 0.0202 s⁻¹
- Kd (human AKR7A2 [1]): 19.3 ± 14.9 µM

SMILES: Clc1ccc(COC(Cn2ccnc2)c2ccc(Cl)cc2Cl)cc1 (centres unmarked) [econazole]
- effect on catalytic efficiency (kcat/Km) of AKR7A2 catalyzing 2-CBA (human AKR7A2 [2]): did not significantly change
- kcat (human AKR7A2 [2]; drug concentration 5 μM): 1.194 ± 0.0285 s⁻¹
- kcat (human AKR7A2 [2]; drug concentration 20 μM): 1.213 ± 0.0258 s⁻¹
- kcat (human AKR7A2 [2]; drug concentration 50 μM): 1.262 ± 0.0635 s⁻¹
- kd (human AKR7A2 [1]): 15.9 ± 0.72 (s^−1) × 10^2
- Kd (human AKR7A2 [1]): 565 ± 84 µM

SMILES: OC(Cn1cncn1)(Cn1cncn1)c1ccc(F)cc1F [fluconazole]
- effect on catalytic efficiency (kcat/Km) of AKR7A2 catalyzing 2-CBA (human AKR7A2 [2]): enhanced significantly
- kcat (human AKR7A2 [2]; drug concentration 20 μM): 1.195 ± 0.0173 s⁻¹
- kcat (human AKR7A2 [2]; drug concentration 50 μM): 1.221 ± 0.0192 s⁻¹
- kcat (human AKR7A2 [2]; drug concentration 100 μM): 1.072 ± 0.0185 s⁻¹
- increment of kcat/Km compared with the absence of the drug (human AKR7A2 [2]): 64%
- kd (human AKR7A2 [1]): 0.0218 ± 0.0046 s⁻¹
- Kd (human AKR7A2 [1]): 8.11 ± 4.83 µM

SMILES: CCC(C)n1ncn(-c2ccc(N3CCN(c4ccc(OCC5COC(Cn6cncn6)(c6ccc(Cl)cc6Cl)O5)cc4)CC3)cc2)c1=O (centres unmarked) [itraconazole]
- effect on catalytic efficiency (kcat/Km) of AKR7A2 catalyzing 2-CBA (human AKR7A2 [2]): enhanced significantly
- kcat (human AKR7A2 [2]; drug concentration 5 μM): 1.342 ± 0.0237 s⁻¹
- kcat (human AKR7A2 [2]; drug concentration 20 μM): 1.219 ± 0.0167 s⁻¹
- kcat (human AKR7A2 [2]; drug concentration 50 μM): 1.107 ± 0.023 s⁻¹
- increment of kcat/Km compared with the absence of the drug (human AKR7A2 [2]): 35%
- kd (human AKR7A2 [1]): 0.0263 ± 0.0035 s⁻¹
- Kd (human AKR7A2 [1]): 0.81 ± 0.44 µM

SMILES: CC(=O)N1CCN(c2ccc(OCC3COC(Cn4ccnc4)(c4ccc(Cl)cc4Cl)O3)cc2)CC1 (centres unmarked) [ketoconazole]
- effect on catalytic efficiency (kcat/Km) of AKR7A2 catalyzing 2-CBA (human AKR7A2 [2]): did not significantly change
- kcat (human AKR7A2 [2]; drug concentration 20 μM): 1.302 ± 0.0268 s⁻¹
- kcat (human AKR7A2 [2]; drug concentration 50 μM): 1.271 ± 0.0303 s⁻¹
- kcat (human AKR7A2 [2]; drug concentration 100 μM): 1.44 ± 0.0348 s⁻¹
- kd (human AKR7A2 [1]): 12.6 ± 1.91 (s^−1) × 10^2
- Kd (human AKR7A2 [1]): 1800 ± 438 µM

SMILES: Clc1ccc(COC(Cn2ccnc2)c2ccc(Cl)cc2Cl)c(Cl)c1 (centres unmarked) [miconazole]
- effect on catalytic efficiency (kcat/Km) of AKR7A2 catalyzing 2-CBA (human AKR7A2 [2]): enhanced significantly
- kcat (human AKR7A2 [2]; drug concentration 5 μM): 1.205 ± 0.0228 s⁻¹
- kcat (human AKR7A2 [2]; drug concentration 20 μM): 1.196 ± 0.0235 s⁻¹
- kcat (human AKR7A2 [2]; drug concentration 50 μM): 1.236 ± 0.0292 s⁻¹
- increment of kcat/Km compared with the absence of the drug (human AKR7A2 [2]): 67%
- kd (human AKR7A2 [1]): 0.0536 ± 0.0017 s⁻¹
- Kd (human AKR7A2 [1]): 84.9 ± 7.21 µM

SMILES: CC[C@@H]([C@H](C)O)n1ncn(-c2ccc(N3CCN(c4ccc(OC[C@@H]5CO[C@@](Cn6cncn6)(c6ccc(F)cc6F)C5)cc4)CC3)cc2)c1=O [posaconazole]
- effect on catalytic efficiency (kcat/Km) of AKR7A2 catalyzing 2-CBA (human AKR7A2 [2]): enhanced significantly
- kcat (human AKR7A2 [2]; drug concentration 5 μM): 1.239 ± 0.0212 s⁻¹
- kcat (human AKR7A2 [2]; drug concentration 20 μM): 1.273 ± 0.029 s⁻¹
- kcat (human AKR7A2 [2]; drug concentration 50 μM): 1.029 ± 0.0295 s⁻¹
- increment of kcat/Km compared with the absence of the drug (human AKR7A2 [2]): 74%
- kd (human AKR7A2 [1]): 0.0298 ± 0.0059 s⁻¹
- Kd (human AKR7A2 [1]): 1.35 ± 0.44 µM

SMILES: C[C@@H](c1ncncc1F)[C@](O)(Cn1cncn1)c1ccc(F)cc1F [voriconazole]
- effect on catalytic efficiency (kcat/Km) of AKR7A2 catalyzing 2-CBA (human AKR7A2 [2]): did not significantly change
- kcat (human AKR7A2 [2]; drug concentration 20 μM): 1.126 ± 0.0163 s⁻¹
- kcat (human AKR7A2 [2]; drug concentration 50 μM): 1.237 ± 0.0168 s⁻¹
- kcat (human AKR7A2 [2]; drug concentration 100 μM): 1.258 ± 0.0248 s⁻¹
- kd (human AKR7A2 [1]): 0.0168 ± 0.0072 s⁻¹
- Kd (human AKR7A2 [1]): 2.98 ± 2.11 µM
- effect on catalysis of AKR7A2 with SSA as a substrate (human AKR7A2 [3]; concentration range of 0–50 µM): efficiently promote the catalysis
- kcat (human AKR7A2 [3]; drug concentration 5 μM): 1.297 ± 0.0377 s⁻¹
- kcat (human AKR7A2 [3]; drug concentration 20 μM): 1.306 ± 0.024 s⁻¹
- kcat (human AKR7A2 [3]; drug concentration 50 μM): 1.326 ± 0.0222 s⁻¹
- cerebrospinal fluid concentrations [4]: 0.08 to 3.93 µg/mL
